Test results reported in the NIST ThermoML archive (doi:10.1016/j.jct.2006.03.009).

Test: cn = amount concentration of the nth substance listed, in mol/dm3
Details: Liquid; for mass density: 7 kPa, Pycnometric method; for speed of sound: 101 kPa

[Cl-].[K+] [potassium chloride] + O
c1 = 1.5
Details | mass density [kg/m3] | speed of sound [m/s]
303.15 K | 1061.4 | 1584
308.15 K | 1059.7 | 1590.4
313.15 K | 1057.8 | 1595.8
318.15 K | 1055.6 | 1601.6
323.15 K | 1053.3 | 1606.2

O=[N+]([O-])[O-].[K+] [potassium nitrate] + O
c1 = 1
Details | mass density [kg/m3] | speed of sound [m/s]
303.15 K | 1052.9 | 1541.8
308.15 K | 1051.1 | 1550.2
313.15 K | 1049 | 1557.4
318.15 K | 1046.7 | 1563.6
323.15 K | 1044.2 | 1568.4

O=S(=O)([O-])[O-].[K+].[K+] [potassium sulfate] + O
c1 = 0.5
Details | mass density [kg/m3] | speed of sound [m/s]
303.15 K | 1059.3 | 1571.2
308.15 K | 1057.9 | 1578.8
313.15 K | 1056.1 | 1587.6
318.15 K | 1054.2 | 1592.6
323.15 K | 1051.9 | 1597.6
